Holding throughout (assay): NCI tumour cell line growth inhibition, 48 h
Experiment [1] has as its system DMS 273 small cell lung.
Experiment [2] deals with SNB-19 CNS.
Experiment [3] concerns LXFL 529 NSCLC.
Experiment [4] deals with SK-OV-3 ovarian.
Experiment [5] relates to SF-539 CNS.
The subject of experiment [6] is COLO 205 colon.
In experiment [7] the test system is NCI-H522 lung.
For experiment [8], the system named is NCI-H226 lung.
Experiment [9] concerns HS 578T breast.
Experiment [10] deals with DU-145 prostate.

Molecules are shown by their SMILES. Values joined by “and” are separate entries in the source; they are usually repeats but may differ in a detail not shown here. Equal entries are not always repeated.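 Each compound was tested at five concentrations against cells in 96-well plates for 48 hours. GI50 is the concentration that inhibits growth by half. The concentration for full growth arrest is given as TGI.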

The record followed here is PubChem BioAssay (NCI).

As to `O=C1NC2(CCCC2)/C(=N\O)C12CCCC2`, the TGI in experiment [1], in experiment [2], in experiment [3], in experiment [4], in [5] and in experiment [6] was greater than 100 µM in each case. In experiment [7], this molecule showed a TGI greater than 100 µM.
Consider `CC1(C(=O)NCCN(CCNC(=O)C2(C)CC3(C)CC(C)(C2)C(=O)NC3=O)CCNC(=O)C2(C)CC3(C)CC(C)(C2)C(=O)NC3=O)CC2(C)CC(C)(C1)C(=O)NC2=O` (stereo not given), for which the TGI in experiment [1], in experiment [2], in experiment [3], in experiment [4], in [5] and in experiment [6] was greater than 100 µM throughout.
Turning to `Cc1cc2c(=O)cc(-c3ccc(C(F)(F)F)cc3)oc2c(C(=O)O)c1C`, the TGI in [1], in [2], in experiment [3], in [4], in experiment [5] and in experiment [6] was greater than 100 µM in each case. The TGI in experiment [8] and in experiment [7] was greater than 100 µM throughout.
On to `CC(C)[C@](O)(C(=O)OCC1=CC[N+]2([O-])CC[C@@H](O)[C@@H]12)[C@H](C)O` (stereo not given in full), for which the TGI in experiment [1], in [2], in experiment [4], in [5], in experiment [6] and in experiment [9] was greater than 10000 µM in each case. The TGI in experiment [8], in [7] and in [10] was greater than 10000 µM throughout.
In the case of `O=C(c1ccccn1)c1nc(-c2ccc(Cl)c(Cl)c2)nc2ccc(Cl)cc12`, the TGI in experiment [1] is greater than 100 µM; in experiment [3], greater than 100 µM; in [4] it was greater than 100 µM; in experiment [5], 56.4 µM; in [8], greater than 100 µM.
For the molecule `Clc1ccccc1C1N2CCCCC2[C@@H]2c3[nH]c4ccccc4c3CCN12` (stereo not given in full), the TGI in [1] is greater than 100 µM; in [2], 82.7 µM; in experiment [3], greater than 100 µM; in experiment [4] it was 55 µM; in [5] it was 30.9 µM; in [6], 37.4 µM.
Turning to `NCCn1ccc(NC(c2ccccc2)(c2ccccc2)c2ccccc2)nc1=O`, the TGI in experiment [3] is 30.3 µM; in experiment [5], 31.3 µM; in experiment [6], 78.6 µM; in [8] it was 32.8 µM; in [7] it was 32.8 µM.
As for `COc1cc[c]([Sb]([Br])([CH]=C(C)C)([CH]=C(C)C)[CH]=C(C)C)cc1`, the GI50 in experiment [1] was 3.3 µM; in experiment [2], 5.4 µM; in [3], 2.88 µM; in [4], 8.94 µM; in experiment [6] it was 1.95 µM; in [7], 2.48 µM. The TGI was 23.3 µM in [1]; 78.9 µM in experiment [2]; 39.3 µM in [3]; 48.3 µM in [4]; 7.99 µM in experiment [6]; 9.23 µM in [7].
In the case of `S=c1nc[nH]c2nc[nH]c12`, the TGI is 565 µM in experiment [1]; greater than 750 µM in experiment [2]; greater than 720 µM in experiment [3]; > 100 µM and 448 µM and > 750 µM in experiment [4]; > 100 µM and 587 µM and 255 µM in experiment [5]; > 100 µM and 546 µM and > 750 µM in experiment [6]. Further, the TGI is > 100 µM and 561 µM and > 612 µM in experiment [9]; > 100 µM and 676 µM and > 750 µM in experiment [8]; > 100 µM and 302 µM and > 750 µM in [7]; greater than 750 µM in [10]. The GI50 was 65.9 µM and 213 µM in experiment [2]; 0.629 µM and 5.06 µM in experiment [4]; 3.02 µM in experiment [5]; 18.8 µM in experiment [6]; 9.62 µM and 30.8 µM in experiment [9]; 5.3 µM and 8.69 µM in experiment [7]. The GI50 in experiment [10] is 0.825 µM and 3.96 µM.
With `C/C=C/C(=O)[C@@H](O)C(C)C`, the TGI in [1], in [2], in experiment [3], in [4], in experiment [6] and in [8] was greater than 100 µM in each case. The molecule also had a TGI in experiment [7] greater than 100 µM.
Consider `CCCCNC(=O)OCC(COc1ccccc1OC)OC(=O)NCCCC` (stereo not given), for which the TGI in [1], in [2], in [3], in experiment [4], in experiment [5] and in experiment [6] was greater than 100 µM in each case. In addition, the TGI in experiment [8] and in [7] was greater than 100 µM each time.
For `CCOC(=O)C12CCSC1C1(C#N)C(C#N)=CC2(N=P(c2ccccc2)(c2ccccc2)c2ccccc2)n2c(=O)n(-c3ccccc3)c(=O)n21` (stereo not given), the TGI was greater than 100 µM in [2]; greater than 100 µM in [3]; greater than 100 µM in experiment [5]; greater than 100 µM in [6]; greater than 100 µM in experiment [8]; 87.2 µM in [7].
With `COC1=C(C)C(=O)C2=C(C1=O)C(CO)N1C(C#N)C3CC4C(C1C2N1CCOC41)N3C` (stereo not given), the TGI was 0.0722 µM and 0.0676 µM in experiment [1]; 8.15 µM and 5.65 µM and 13.6 µM in experiment [2]; 1.32 µM and 2.7 µM and 1.7 µM in [4]; 0.0203 µM and 0.0151 µM and 0.0205 µM in [6]; 14 µM in [10]. The GI50 was 0.000734 µM and 0.00604 µM and < 0.0134 µM in experiment [6]; 0.0438 µM and 0.362 µM and 0.133 µM in [10].
For `O=C(N[C@@H]1C=CCC[C@@H]1c1ccccc1)OCc1ccccc1`, the TGI is 32.4 µM in experiment [1]; 99.6 µM in experiment [2]; 49.8 µM in experiment [3]; greater than 100 µM in [4]; 33.5 µM in experiment [5]; 33.1 µM in [6]. Also, the TGI in experiment [8] is 36.4 µM; in experiment [7] it was 30.9 µM.
In the case of `Cc1ccc(/C=N/NS(=O)(=O)c2ccccc2)cc1`, the TGI in experiment [1], in experiment [3], in experiment [4], in [5], in [6] and in experiment [8] was greater than 100 µM throughout.
As for `NC1=NN(c2ccccc2)C(=O)C1/C(=N\NC(=O)c1cc2ccccc2cc1O)C(=O)Nc1nc([N+](=O)[O-])cs1` (stereo not given), the TGI in experiment [1] is greater than 73.6 µM; in experiment [2], greater than 100 µM; in experiment [3], greater than 100 µM; in [4] it was greater than 100 µM; in experiment [5] it was 59.6 µM; in experiment [6], 54.8 µM. Moreover, the TGI is greater than 100 µM in experiment [8] and 37.2 µM in experiment [7].
With `CN(C)C(=S)/N=c1\ssc(=S)n1-c1ccccc1`, the TGI in [1] is 38.3 µM; in experiment [2] it was greater than 100 µM; in experiment [3] it was 25.1 µM; in experiment [4], greater than 100 µM; in experiment [5], 30.5 µM; in experiment [8] it was 26.9 µM. Further, the TGI in experiment [7] is 27.8 µM.
Take `CN(C)CCNC(=O)c1cccc2cc([N+](=O)[O-])ccc12`: the TGI in experiment [1] was 0.722 µM; in [2] it was 16.1 µM and 2.38 µM; in experiment [3], 1.83 µM; in experiment [4] it was 33.1 µM and 14.5 µM; in experiment [5] it was 2.34 µM and 0.606 µM; in experiment [9], 7.16 µM. The TGI in [7] is 2.88 µM; in experiment [10], 17.1 µM. The GI50 is 2.55 µM and 0.342 µM in experiment [2]; 3.48 µM and 0.535 µM in experiment [4]; 0.886 µM and 0.146 µM in experiment [5]; 0.893 µM and 0.217 µM in experiment [6].
Turning to `O=C(O)c1c([N+](=O)[O-])cc(C(F)(F)F)cc1[N+](=O)[O-]`, the TGI in experiment [1], in experiment [2], in [3], in experiment [5], in experiment [6] and in experiment [8] was greater than 100 µM each time. In experiment [7], the TGI was greater than 100 µM.
In the case of `COc1ccc2nc3ccccc3c(NCCCCCN(CCCl)CCCl)c2c1`, the TGI in experiment [1] came out at 0.343 µM; in [2], 0.914 µM; in experiment [3], 0.81 µM; in [6], 0.429 µM; in experiment [8] it was 0.801 µM; in experiment [7] it was 0.017 µM.
`CCOc1ccccc1NC(=O)C(=O)C(C(=O)c1ccc2ccccc2c1)C1OC(=O)c2ccccc21` (stereo not given): the TGI in experiment [1] came to 31.7 µM; in experiment [2], 22 µM; in experiment [3] it was 19.4 µM; in experiment [4], 52.8 µM; in experiment [5], 24.8 µM; in [6], 29.7 µM. Also, the TGI in experiment [8] came to 7.06 µM; in [7] it was 27.4 µM.
Regarding `COc1ccc2[nH]c3c(C)c4cc[n+](C)cc4c(C)c3c2c1`, the GI50 in experiment [1] was 0.502 µM and 0.189 µM; in [2], 0.103 µM and 0.322 µM; in [3] it was 0.383 µM; in [4] it was 4.31 µM and 1.57 µM; in [8] it was 0.111 µM; in [7] it was 0.167 µM and 0.0825 µM. Moreover, the GI50 in experiment [10] was 2.1 µM and 0.44 µM and 0.691 µM. In addition, the TGI in experiment [2] was 1.04 µM [middle of 4 runs]; in experiment [3], 3.41 µM; in experiment [5], 1.65 µM and 1.46 µM and 1.32 µM; in [6] it was 7.97 µM and 4.89 µM and 3.58 µM; in experiment [9] it was 1.13 µM and 0.759 µM; in experiment [8] it was 1.52 µM and 1.13 µM and 0.572 µM. The TGI in experiment [10] was 37.7 µM and 5.13 µM.
`O=c1c2cc(Br)ccc2nc(-c2ccccc2)n1NCC1(O)OCC(O)C(O)C1O` (stereo not given): the TGI in experiment [1], in [2], in experiment [3], in experiment [4], in experiment [5] and in experiment [6] was greater than 100 µM throughout. In addition, the TGI in experiment [8] and in experiment [7] was greater than 100 µM in each case.
Consider `O=C(c1ccco1)c1ccccc1C(=O)c1ccco1`, for which the TGI in experiment [1], in experiment [2], in experiment [3], in [5], in experiment [6] and in experiment [8] was greater than 100 µM each time.
Consider `CSc1c(S(C)=O)[nH]c2cc(Br)cc(Br)c12` (stereo not given), for which the TGI in experiment [1] came to 35.1 µM; in experiment [3] it was 48.8 µM; in experiment [4] it was 61.9 µM; in experiment [5] it was 47.5 µM; in experiment [6], 33.1 µM; in experiment [8], 67.9 µM. Also, the TGI in [7] is 55.5 µM.
